Results as given in PMC9856672, “SGC-CAMKK2-1: A Chemical Probe for CAMKK2” (Cells, 2023).

Tests used:
[1] = molecular target: T1, ALK (Homo sapiens, UniProt Q9UM73); assay: KINOMEscan 1 μM, ALK; type: binding; settings: 1000 nM; Entrez ALK; read-out: Percent Control
T1 construct: purchased Eurofins DiscoverX KINOMEscan
From the text: (§1) Supplement cells-12-00287-s001.zip/File S2. KinomeScan data for the CAMKK2 probe and negative control.xlsx, sheet "SGC-CAMKK2-1" | column: Percent Control

[2] = molecular target: T2, PIK3CA(H1047L) (Homo sapiens, UniProt P42336, H1047L); assay: KINOMEscan 1 μM, PIK3CA(H1047L); type: binding; settings: 1000 nM; Entrez PIK3CA; read-out: Percent Control
T2 construct: purchased Eurofins DiscoverX KINOMEscan
From the text: as §1

[3] = molecular target: T3, VRK2 (Homo sapiens, UniProt Q86Y07); assay: DiscoverX KINOMEscan binding assay at 1 μM, VRK2; settings: Compound Concentration 1000 nM, read-out: Percent Control
T3 construct: purchased Eurofins DiscoverX KINOMEscan
From the text: as §1

[4] = molecular target: T4, ERBB2 (Homo sapiens, UniProt P04626); assay: KINOMEscan 1 μM, ERBB2; type: binding; settings: 1000 nM; Entrez ERBB2; read-out: Percent Control
T4 construct: purchased Eurofins DiscoverX KINOMEscan
From the text: as §1

[5] = molecular target: T5, ANKK1 (Homo sapiens, UniProt Q8NFD2); assay: KINOMEscan 1 μM, ANKK1; type: binding; settings: 1000 nM; Entrez ANKK1; read-out: Percent Control
T5 construct: purchased Eurofins DiscoverX KINOMEscan
From the text: as §1

[6] = molecular target: T6, EPHA4 (Homo sapiens, UniProt P54764); assay: KINOMEscan 1 μM, EPHA4; type: binding; settings: 1000 nM; Entrez EPHA4; read-out: Percent Control
T6 construct: purchased Eurofins DiscoverX KINOMEscan
From the text: as §1

[7] = molecular target: T7, MRCKB (Homo sapiens, UniProt Q9Y5S2); assay: KINOMEscan 1 μM, MRCKB; type: binding; settings: 1000 nM; Entrez CDC42BPB; read-out: Percent Control
T7 construct: purchased Eurofins DiscoverX KINOMEscan
From the text: as §1

[8] = molecular target: T8, RET(V804M) (Homo sapiens, UniProt P07949, V804M); assay: DiscoverX KINOMEscan binding assay at 1 μM, RET(V804M); settings: Compound Concentration 1000 nM, read-out: Percent Control
T8 construct: purchased Eurofins DiscoverX KINOMEscan
From the text: as §1

[9] = molecular target: T9, PIP5K1A (Homo sapiens, UniProt Q99755); assay: DiscoverX KINOMEscan binding assay at 1 μM, PIP5K1A; settings: Compound Concentration 1000 nM, read-out: Percent Control
T9 construct: purchased Eurofins DiscoverX KINOMEscan
From the text: as §1

[10] = molecular target: T10, HIPK1 (Homo sapiens, UniProt Q86Z02); assay: KINOMEscan 1 μM, HIPK1; type: binding; settings: 1000 nM; Entrez HIPK1; read-out: Percent Control
T10 construct: purchased Eurofins DiscoverX KINOMEscan
From the text: as §1

[11] = molecular target: T11, EGFR(S752-I759del) (Homo sapiens, UniProt P00533, DEL752-759); assay: KINOMEscan 1 μM, EGFR(S752-I759del); type: binding; settings: 1000 nM; Entrez EGFR; read-out: Percent Control
T11 construct: purchased Eurofins DiscoverX KINOMEscan
From the text: as §1

[12] = molecular target: T12, FGFR3(G697C) (Homo sapiens, UniProt P22607, G697C); assay: KINOMEscan 1 μM, FGFR3(G697C); type: binding; settings: 1000 nM; Entrez FGFR3; read-out: Percent Control
T12 construct: purchased Eurofins DiscoverX KINOMEscan
From the text: as §1

[13] = molecular target: T13, PLK3 (Homo sapiens, UniProt Q9H4B4); assay: DiscoverX KINOMEscan binding assay at 1 μM, PLK3; settings: Compound Concentration 1000 nM, read-out: Percent Control
T13 construct: purchased Eurofins DiscoverX KINOMEscan
From the text: as §1

[14] = molecular target: T14, MRCKA (Homo sapiens, UniProt Q5VT25); assay: KINOMEscan 1 μM, MRCKA; type: binding; settings: 1000 nM; Entrez CDC42BPA; read-out: Percent Control
T14 construct: purchased Eurofins DiscoverX KINOMEscan
From the text: as §1

[15] = molecular target: T15, PIK3C2G (Homo sapiens, UniProt O75747); assay: KINOMEscan 1 μM, PIK3C2G; type: binding; settings: 1000 nM; Entrez PIK3C2G; read-out: Percent Control
T15 construct: purchased Eurofins DiscoverX KINOMEscan
From the text: as §1

[16] = molecular target: T16, ACVR1B (Homo sapiens, UniProt P36896); assay: KINOMEscan 1 μM, ACVR1B; type: binding; settings: 1000 nM; Entrez ACVR1B; read-out: Percent Control
T16 construct: purchased Eurofins DiscoverX KINOMEscan
From the text: as §1

[17] = molecular target: T17, FYN (Homo sapiens, UniProt P06241); assay: KINOMEscan 1 μM, FYN; type: binding; settings: 1000 nM; Entrez FYN; read-out: Percent Control
T17 construct: purchased Eurofins DiscoverX KINOMEscan
From the text: as §1

[18] = molecular target: T18, LRRK2(G2019S) (Homo sapiens, UniProt Q5S007, G2019S); assay: KINOMEscan 1 μM, LRRK2(G2019S); type: binding; settings: 1000 nM; Entrez LRRK2; read-out: Percent Control
T18 construct: purchased Eurofins DiscoverX KINOMEscan
From the text: as §1

[19] = molecular target: T19, PIK3CA(H1047Y) (Homo sapiens, UniProt P42336, H1047Y); assay: KINOMEscan at 1 μM, PIK3CA(H1047Y); type: binding; settings: 1000 nM, read-out: Percent Control
T19 construct: purchased Eurofins DiscoverX KINOMEscan
From the text: (§2) Supplement cells-12-00287-s001.zip/File S2. KinomeScan data for the CAMKK2 probe and negative control.xlsx, sheet "SGC-CAMKK2-1N" | column: Percent Control

[20] = molecular target: T20, MAP4K3 (Homo sapiens, UniProt Q8IVH8); assay: KINOMEscan at 1 μM, MAP4K3; type: binding; settings: 1000 nM, read-out: Percent Control
T20 construct: purchased Eurofins DiscoverX KINOMEscan
From the text: as §2

[21] = molecular target: T21, MST2 (Homo sapiens, UniProt Q13188); assay: KINOMEscan at 1 μM, MST2; type: binding; settings: 1000 nM, read-out: Percent Control
T21 construct: purchased Eurofins DiscoverX KINOMEscan
From the text: as §2

[22] = molecular target: T22, CDK4-cyclinD3 (Homo sapiens, UniProt P11802); assay: KINOMEscan at 1 μM, CDK4-cyclinD3; type: binding; settings: 1000 nM, read-out: Percent Control
T22 construct: purchased Eurofins DiscoverX KINOMEscan
From the text: as §2

[23] = molecular target: T23, ALK(L1196M) (Homo sapiens, UniProt Q9UM73, L1196M); assay: KINOMEscan at 1 μM, ALK(L1196M); type: binding; settings: 1000 nM, read-out: Percent Control
T23 construct: purchased Eurofins DiscoverX KINOMEscan
From the text: as §2

[24] = molecular target: T24, PAK3 (Homo sapiens, UniProt O75914); assay: KINOMEscan binding assay at 1 μM, PAK3; settings: Compound Concentration 1000 nM; read-out: Percent Control
T24 construct: purchased Eurofins DiscoverX KINOMEscan
From the text: as §2

[25] = molecular target: T25, PKMYT1 (Homo sapiens, UniProt Q99640); assay: KINOMEscan at 1 μM, PKMYT1; type: binding; settings: 1000 nM, read-out: Percent Control
T25 construct: purchased Eurofins DiscoverX KINOMEscan
From the text: as §2

[26] = molecular target: T26, CAMK4 (Homo sapiens, UniProt Q16566); assay: KINOMEscan at 1 μM, CAMK4; type: binding; settings: 1000 nM, read-out: Percent Control
T26 construct: purchased Eurofins DiscoverX KINOMEscan
From the text: as §2

[27] = molecular target: T27, WNK2 (Homo sapiens, UniProt Q9Y3S1); assay: KINOMEscan at 1 μM, WNK2; type: binding; settings: 1000 nM, read-out: Percent Control
T27 construct: purchased Eurofins DiscoverX KINOMEscan
From the text: as §2

[28] = molecular target: T28, PRKCE (Homo sapiens, UniProt Q02156); assay: KINOMEscan binding assay at 1 μM, PRKCE; settings: Compound Concentration 1000 nM; read-out: Percent Control
T28 construct: purchased Eurofins DiscoverX KINOMEscan
From the text: as §2

[29] = molecular target: T29, SRPK2 (Homo sapiens, UniProt P78362); assay: KINOMEscan at 1 μM, SRPK2; type: binding; settings: 1000 nM, read-out: Percent Control
T29 construct: purchased Eurofins DiscoverX KINOMEscan
From the text: as §2

[30] = molecular target: T30, DYRK2 (Homo sapiens, UniProt Q92630); assay: KINOMEscan at 1 μM, DYRK2; type: binding; settings: 1000 nM, read-out: Percent Control
T30 construct: purchased Eurofins DiscoverX KINOMEscan
From the text: as §2

[31] = molecular target: T31, LZK (Homo sapiens, UniProt O43283); assay: KINOMEscan at 1 μM, LZK; type: binding; settings: 1000 nM, read-out: Percent Control
T31 construct: purchased Eurofins DiscoverX KINOMEscan
From the text: as §2

[32] = molecular target: T2, PIK3CA(H1047L); assay: KINOMEscan at 1 μM, PIK3CA(H1047L); type: binding; settings: 1000 nM, read-out: Percent Control
From the text: as §2

[33] = molecular target: T32, MARK3 (Homo sapiens, UniProt P27448); assay: KINOMEscan at 1 μM, MARK3; type: binding; settings: 1000 nM, read-out: Percent Control
T32 construct: purchased Eurofins DiscoverX KINOMEscan
From the text: as §2

[34] = molecular target: T33, YSK4 (Homo sapiens, UniProt Q56UN5); assay: KINOMEscan at 1 μM, YSK4; type: binding; settings: 1000 nM, read-out: Percent Control
T33 construct: purchased Eurofins DiscoverX KINOMEscan
From the text: as §2

T2 sequence (P42336 whole entry H1047L): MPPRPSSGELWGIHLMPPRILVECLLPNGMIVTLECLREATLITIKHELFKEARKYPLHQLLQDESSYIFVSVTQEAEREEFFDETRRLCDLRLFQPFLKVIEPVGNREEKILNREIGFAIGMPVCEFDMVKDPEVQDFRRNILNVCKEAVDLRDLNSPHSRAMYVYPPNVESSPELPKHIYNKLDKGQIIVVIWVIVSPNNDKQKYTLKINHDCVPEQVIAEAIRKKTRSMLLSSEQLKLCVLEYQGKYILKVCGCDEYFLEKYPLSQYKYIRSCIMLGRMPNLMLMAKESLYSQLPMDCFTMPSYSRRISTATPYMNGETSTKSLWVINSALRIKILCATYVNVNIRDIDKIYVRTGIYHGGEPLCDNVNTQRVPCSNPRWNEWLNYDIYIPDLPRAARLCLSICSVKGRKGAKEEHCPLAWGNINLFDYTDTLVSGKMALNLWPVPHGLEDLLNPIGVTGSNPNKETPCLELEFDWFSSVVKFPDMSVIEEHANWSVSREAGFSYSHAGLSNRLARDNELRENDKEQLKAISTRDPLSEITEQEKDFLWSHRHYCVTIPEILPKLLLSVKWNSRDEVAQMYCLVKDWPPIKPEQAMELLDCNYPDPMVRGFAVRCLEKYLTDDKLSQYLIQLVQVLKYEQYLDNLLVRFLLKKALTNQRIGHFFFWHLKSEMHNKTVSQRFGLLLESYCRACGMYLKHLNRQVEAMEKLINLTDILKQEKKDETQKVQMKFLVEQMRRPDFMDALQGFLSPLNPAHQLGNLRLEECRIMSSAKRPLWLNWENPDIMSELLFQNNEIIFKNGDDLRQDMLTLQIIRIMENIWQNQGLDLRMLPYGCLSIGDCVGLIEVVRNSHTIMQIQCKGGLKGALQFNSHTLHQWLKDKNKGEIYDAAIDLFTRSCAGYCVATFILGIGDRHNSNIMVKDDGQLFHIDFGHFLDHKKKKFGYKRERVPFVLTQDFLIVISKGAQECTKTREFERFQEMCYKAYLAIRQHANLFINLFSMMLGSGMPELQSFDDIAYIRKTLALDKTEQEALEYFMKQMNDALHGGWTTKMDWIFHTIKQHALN
T13 sequence (Q9H4B4 whole entry): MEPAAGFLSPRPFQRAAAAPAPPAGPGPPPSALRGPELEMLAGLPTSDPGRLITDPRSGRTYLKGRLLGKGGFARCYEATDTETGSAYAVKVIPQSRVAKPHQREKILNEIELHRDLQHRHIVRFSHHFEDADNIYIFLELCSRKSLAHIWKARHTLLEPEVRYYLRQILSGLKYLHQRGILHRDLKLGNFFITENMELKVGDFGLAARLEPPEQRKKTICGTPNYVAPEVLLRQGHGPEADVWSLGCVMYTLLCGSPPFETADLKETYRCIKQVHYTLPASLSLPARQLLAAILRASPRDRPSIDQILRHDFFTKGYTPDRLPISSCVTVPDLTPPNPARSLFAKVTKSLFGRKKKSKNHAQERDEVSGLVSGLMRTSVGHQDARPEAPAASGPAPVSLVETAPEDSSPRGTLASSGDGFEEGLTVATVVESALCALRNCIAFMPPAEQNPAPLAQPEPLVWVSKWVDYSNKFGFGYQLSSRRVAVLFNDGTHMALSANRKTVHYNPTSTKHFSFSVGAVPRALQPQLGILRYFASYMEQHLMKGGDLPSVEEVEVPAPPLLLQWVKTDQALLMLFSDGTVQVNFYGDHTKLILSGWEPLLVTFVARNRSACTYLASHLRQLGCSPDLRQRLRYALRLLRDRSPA
T5 sequence (Q8NFD2 whole entry): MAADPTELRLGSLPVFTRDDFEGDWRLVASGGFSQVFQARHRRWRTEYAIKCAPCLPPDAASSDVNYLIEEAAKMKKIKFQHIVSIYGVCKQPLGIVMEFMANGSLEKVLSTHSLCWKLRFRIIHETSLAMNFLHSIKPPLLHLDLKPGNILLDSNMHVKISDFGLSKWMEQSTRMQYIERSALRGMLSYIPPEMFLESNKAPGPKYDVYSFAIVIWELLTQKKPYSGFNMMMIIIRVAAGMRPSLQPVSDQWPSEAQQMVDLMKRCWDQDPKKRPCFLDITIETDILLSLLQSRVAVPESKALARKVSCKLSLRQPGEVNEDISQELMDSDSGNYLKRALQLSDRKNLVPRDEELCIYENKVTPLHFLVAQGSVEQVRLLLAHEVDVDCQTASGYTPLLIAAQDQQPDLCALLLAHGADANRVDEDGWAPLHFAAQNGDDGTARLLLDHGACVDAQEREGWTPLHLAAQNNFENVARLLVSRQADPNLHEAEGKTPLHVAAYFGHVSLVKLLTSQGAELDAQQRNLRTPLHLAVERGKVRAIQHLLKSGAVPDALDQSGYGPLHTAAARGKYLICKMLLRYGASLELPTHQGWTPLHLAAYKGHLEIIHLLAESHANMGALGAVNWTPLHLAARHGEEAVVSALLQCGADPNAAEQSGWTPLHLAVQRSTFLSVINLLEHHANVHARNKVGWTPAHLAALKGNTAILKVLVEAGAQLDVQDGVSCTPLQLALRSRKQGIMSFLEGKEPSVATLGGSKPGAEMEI
T29 sequence (P78362 whole entry): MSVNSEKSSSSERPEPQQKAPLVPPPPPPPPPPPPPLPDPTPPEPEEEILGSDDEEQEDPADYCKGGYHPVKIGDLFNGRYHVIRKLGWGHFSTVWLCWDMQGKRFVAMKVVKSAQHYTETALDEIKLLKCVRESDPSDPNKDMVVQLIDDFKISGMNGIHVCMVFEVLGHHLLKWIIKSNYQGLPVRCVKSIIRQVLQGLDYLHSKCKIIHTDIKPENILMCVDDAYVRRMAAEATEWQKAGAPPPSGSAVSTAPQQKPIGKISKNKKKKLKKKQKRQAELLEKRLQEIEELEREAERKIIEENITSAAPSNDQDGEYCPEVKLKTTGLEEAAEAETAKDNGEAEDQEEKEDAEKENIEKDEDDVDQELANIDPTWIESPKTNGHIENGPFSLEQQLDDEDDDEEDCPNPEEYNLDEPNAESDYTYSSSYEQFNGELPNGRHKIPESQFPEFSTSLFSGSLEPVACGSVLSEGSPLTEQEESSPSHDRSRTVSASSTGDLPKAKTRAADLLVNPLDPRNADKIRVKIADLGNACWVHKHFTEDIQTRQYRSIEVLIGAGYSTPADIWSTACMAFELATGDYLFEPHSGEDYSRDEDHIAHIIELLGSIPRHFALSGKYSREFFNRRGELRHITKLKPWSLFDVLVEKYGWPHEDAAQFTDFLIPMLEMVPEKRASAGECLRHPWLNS
T1 sequence (Q9UM73 19-1620): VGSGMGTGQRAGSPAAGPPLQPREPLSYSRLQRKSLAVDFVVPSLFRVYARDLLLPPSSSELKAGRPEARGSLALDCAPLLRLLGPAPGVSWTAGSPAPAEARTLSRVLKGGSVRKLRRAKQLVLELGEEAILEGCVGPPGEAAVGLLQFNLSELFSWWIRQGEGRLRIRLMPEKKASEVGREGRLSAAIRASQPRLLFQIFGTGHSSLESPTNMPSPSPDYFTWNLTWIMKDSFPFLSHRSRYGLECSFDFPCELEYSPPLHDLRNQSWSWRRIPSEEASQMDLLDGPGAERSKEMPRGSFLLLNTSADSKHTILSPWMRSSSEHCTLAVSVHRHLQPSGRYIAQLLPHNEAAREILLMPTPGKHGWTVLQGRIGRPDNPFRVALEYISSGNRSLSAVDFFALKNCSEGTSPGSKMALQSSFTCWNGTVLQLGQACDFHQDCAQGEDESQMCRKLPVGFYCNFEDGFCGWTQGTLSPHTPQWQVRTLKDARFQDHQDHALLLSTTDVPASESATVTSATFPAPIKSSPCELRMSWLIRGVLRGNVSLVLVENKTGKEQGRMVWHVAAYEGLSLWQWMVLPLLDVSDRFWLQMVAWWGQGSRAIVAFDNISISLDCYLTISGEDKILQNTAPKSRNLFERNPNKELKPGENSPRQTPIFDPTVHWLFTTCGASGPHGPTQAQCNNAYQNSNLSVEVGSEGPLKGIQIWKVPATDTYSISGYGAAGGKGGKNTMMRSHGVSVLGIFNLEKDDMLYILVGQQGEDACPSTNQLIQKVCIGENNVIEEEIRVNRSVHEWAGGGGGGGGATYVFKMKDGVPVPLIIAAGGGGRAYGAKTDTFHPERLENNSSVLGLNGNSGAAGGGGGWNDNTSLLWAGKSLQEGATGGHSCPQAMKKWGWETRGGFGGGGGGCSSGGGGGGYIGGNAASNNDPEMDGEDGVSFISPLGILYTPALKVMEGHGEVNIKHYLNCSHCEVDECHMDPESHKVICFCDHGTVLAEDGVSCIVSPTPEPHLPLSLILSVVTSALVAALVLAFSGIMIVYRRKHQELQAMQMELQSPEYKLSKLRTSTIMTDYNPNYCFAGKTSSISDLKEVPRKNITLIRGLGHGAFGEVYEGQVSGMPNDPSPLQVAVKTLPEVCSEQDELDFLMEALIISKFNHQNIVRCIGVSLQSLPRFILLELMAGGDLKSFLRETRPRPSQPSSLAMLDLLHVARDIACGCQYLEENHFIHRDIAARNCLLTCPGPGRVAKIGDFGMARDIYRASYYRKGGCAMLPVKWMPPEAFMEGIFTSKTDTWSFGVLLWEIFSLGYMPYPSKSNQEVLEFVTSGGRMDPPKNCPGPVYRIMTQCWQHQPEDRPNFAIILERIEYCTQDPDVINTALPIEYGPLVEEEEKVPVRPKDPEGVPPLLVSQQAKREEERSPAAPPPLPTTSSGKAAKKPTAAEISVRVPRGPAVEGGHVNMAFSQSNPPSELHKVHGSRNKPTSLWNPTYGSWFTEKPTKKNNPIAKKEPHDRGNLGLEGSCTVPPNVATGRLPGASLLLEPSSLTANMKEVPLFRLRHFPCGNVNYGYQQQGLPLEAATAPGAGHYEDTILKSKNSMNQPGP
T23 sequence (Q9UM73 19-1620 L1196M): as the sequence (Q9UM73 19-1620) above, with L1178M counted along it
T19 sequence (P42336 whole entry H1047Y): as the sequence (P42336 whole entry H1047L) above, with L1047Y counted along it

Question: What does the source list for Cc1cccc(-c2cnc3occ(-c4ccc(C(=O)O)c(C5CCCC5)c4)c3c2)c1 [SGC-CAMKK2-1 (YL-36)]?
Answer: remaining binding at 1 µM [1]: 100%; remaining binding at 1 µM [2]: 78%; remaining binding at 1 µM [3]: 100%; remaining binding at 1 µM [4]: 100%; remaining binding at 1 µM [5]: 100%; remaining binding at 1 µM [6]: 90%; remaining binding at 1 µM [7]: 82%; remaining binding at 1 µM [8]: 100%; remaining binding at 1 µM [9]: 100%; remaining binding at 1 µM [10]: 90%; remaining binding at 1 µM [11]: 87%; remaining binding at 1 µM [12]: 100%; remaining binding at 1 µM [13]: 100%; remaining binding at 1 µM [14]: 100%; remaining binding at 1 µM [15]: 81%; remaining binding at 1 µM [16]: 100%; remaining binding at 1 µM [17]: 86%; remaining binding at 1 µM [18]: 100%

Question: Which remaining binding at 1 µM [19] does the source give for O=C(O)c1ccc(-c2coc3ncc(-c4ccccc4)cc23)cc1Cl [SGC-CAMKK2-1N (UNC-YL-83)] here?
Answer: 59%

Question: And the remaining binding at 1 µM [20]?
Answer: 91%

Question: What about the remaining binding at 1 µM [21] of the same compound?
Answer: 79%

Question: What about the remaining binding at 1 µM [22] of the same compound?
Answer: 87%

Question: What about the remaining binding at 1 µM [23] of the same compound?
Answer: 92%

Question: What about the remaining binding at 1 µM [24] of the same compound?
Answer: 100%

Question: And the remaining binding at 1 µM [25]?
Answer: 94%

Question: And the remaining binding at 1 µM [26]?
Answer: 100%

Question: And the remaining binding at 1 µM [27]?
Answer: 58%

Question: What about the remaining binding at 1 µM [28] of the same compound?
Answer: 100%

Question: What about the remaining binding at 1 µM [29] of the same compound?
Answer: 76%

Question: What about the remaining binding at 1 µM [30] of the same compound?
Answer: 100%

Question: And the remaining binding at 1 µM [31]?
Answer: 81%

Question: What about the remaining binding at 1 µM [32] of the same compound?
Answer: 53%

Question: And the remaining binding at 1 µM [33]?
Answer: 61%

Question: And the remaining binding at 1 µM [34]?
Answer: 77%
